Read-outs that look alike come from different tables or passages of the source.
Tests used:
[1] = molecular target: T1, diketoreductase (DKR) (Acinetobacter baylyi, UniProt B1P3E1, W222L); experiment: NADH oxidation, absorbance; assay type: biochemical; settings: 0.15 mM NADH constant, potassium phosphate pH 6.0; average of two measurements
T1 construct: full-length in pET22b(+), E. coli BL21(DE3); DEAE and Sephadex G-100 purified; homodimer, 283 residues per subunit
From the text: (§1) NADH oxidation, absorbance on WT-DKR; diketoreductase (DKR)

[2] = molecular target: T2, diketoreductase (DKR) (Acinetobacter baylyi, UniProt B1P3E1, W222Y); experiment: NADH oxidation, absorbance; assay type: biochemical; settings: 0.15 mM NADH constant, potassium phosphate pH 6.0; average of two measurements
T2 construct: full-length in pET22b(+), E. coli BL21(DE3); DEAE and Sephadex G-100 purified; homodimer, 283 residues per subunit
From the text: as §1

[3] = molecular target: T3, diketoreductase (DKR) (Acinetobacter baylyi, UniProt B1P3E1, W222V); experiment: NADH oxidation, absorbance; assay type: biochemical; settings: 0.15 mM NADH constant, potassium phosphate pH 6.0; average of two measurements
T3 construct: full-length in pET22b(+), E. coli BL21(DE3); DEAE and Sephadex G-100 purified; homodimer, 283 residues per subunit
From the text: as §1

[4] = molecular target: T4, WT-DKR; diketoreductase (DKR) (Acinetobacter baylyi, UniProt B1P3E1, W222M); experiment: NADH oxidation, absorbance; assay type: biochemical; settings: 0.15 mM NADH constant, potassium phosphate pH 6.0; average of two measurements
T4 construct: full-length in pET22b(+), E. coli BL21(DE3); DEAE and Sephadex G-100 purified; homodimer, 283 residues per subunit
From the text: as §1

[5] = molecular target: T5, WT-DKR; diketoreductase (DKR) (Acinetobacter baylyi, UniProt B1P3E1, W222F); experiment: NADH oxidation, absorbance; assay type: biochemical; settings: 0.15 mM NADH constant, potassium phosphate pH 6.0; average of two measurements
T5 construct: full-length in pET22b(+), E. coli BL21(DE3); DEAE and Sephadex G-100 purified; homodimer, 283 residues per subunit
From the text: as §1

[6] = molecular target: T6, WT-DKR; diketoreductase (DKR) (Acinetobacter baylyi, UniProt B1P3E1); experiment: NADH oxidation, absorbance; assay type: biochemical; settings: 0.15 mM NADH constant, potassium phosphate pH 6.0; average of two measurements
T6 construct: full-length in pET22b(+), E. coli BL21(DE3); DEAE and Sephadex G-100 purified; homodimer, 283 residues per subunit
From the text: as §1
Target sequence in this assay (B1P3E1 entry or part of it): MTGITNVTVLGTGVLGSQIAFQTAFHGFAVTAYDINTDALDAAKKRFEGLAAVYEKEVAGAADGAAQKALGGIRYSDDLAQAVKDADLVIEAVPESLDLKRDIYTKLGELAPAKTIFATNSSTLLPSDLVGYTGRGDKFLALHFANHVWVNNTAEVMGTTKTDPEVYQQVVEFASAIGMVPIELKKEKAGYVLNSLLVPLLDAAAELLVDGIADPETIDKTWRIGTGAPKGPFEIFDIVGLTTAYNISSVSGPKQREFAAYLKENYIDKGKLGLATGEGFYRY

[7] = molecular target: T2, diketoreductase (DKR); experiment: intrinsic Trp fluorescence quenching, quadratic fit; assay type: binding
From the text: (§2) intrinsic Trp fluorescence quenching, quadratic fit on WT-DKR; diketoreductase (DKR)

[8] = molecular target: T7, diketoreductase (DKR) (Acinetobacter baylyi, UniProt B1P3E1, W222F); experiment: as above; assay type: binding
T7 construct: full-length in pET22b(+), E. coli BL21(DE3); DEAE and Sephadex G-100 purified; homodimer, 283 residues per subunit
From the text: as §2

[9] = molecular target: T3, diketoreductase (DKR); experiment: as above; assay type: binding
From the text: as §2

[10] = molecular target: T8, diketoreductase (DKR) (Acinetobacter baylyi, UniProt B1P3E1, W222M); experiment: as above; assay type: binding
T8 construct: full-length in pET22b(+), E. coli BL21(DE3); DEAE and Sephadex G-100 purified; homodimer, 283 residues per subunit
From the text: as §2

[11] = molecular target: T6, WT-DKR; diketoreductase (DKR); experiment: as above; assay type: binding
From the text: as §2
Target sequence in this assay (B1P3E1 entry or part of it W222L): as the sequence (B1P3E1 entry or part of it) above

[12] = molecular target: T6, WT-DKR; diketoreductase (DKR); experiment: as above; assay type: binding; remark: listed apart in the source
From the text: as §2
Target sequence in this assay (B1P3E1 entry or part of it): as above

T3 sequence (B1P3E1 entry or part of it W222V): as the sequence (B1P3E1 entry or part of it) above
T2 sequence (B1P3E1 entry or part of it W222Y): as the sequence (B1P3E1 entry or part of it) above
T1 sequence (B1P3E1 entry or part of it W222L): as the sequence (B1P3E1 entry or part of it) above
T4 sequence (B1P3E1 entry or part of it W222M): as the sequence (B1P3E1 entry or part of it) above
T7 sequence (B1P3E1 entry or part of it W222F): as the sequence (B1P3E1 entry or part of it) above
T8 sequence (B1P3E1 entry or part of it W222M): as the sequence (B1P3E1 entry or part of it) above
T5 sequence (B1P3E1 entry or part of it W222F): as the sequence (B1P3E1 entry or part of it) above

Work on `O=C(CCl)c1ccccc1` [2-chloro-1-phenylethanone] yielded a Km [1] of 3160 µM, a Km [2] of 2510 µM and a Km [3] of 302 µM. It also gave a Km [4] of 2800 µM, a Km [5] of 4180 µM and a Km [6] of 1130 µM. It also gave a Kd [7] of 455 µM, a Kd [8] of 484 µM and a Kd [9] of 507 µM. It also gave a Kd [10] of 457 µM, a Kd [11] of 458 µM and a Kd [12] of 460 µM.
